≈ marks a conversion by molar mass, not a printed value.
Tests used:
[1] = target: T1, Adenylate cyclase type 10 (Homo sapiens, UniProt Q96PN6)
[2] = target: Adenylate cyclase type 10 (Rattus norvegicus, UniProt Q9Z286); assay: Inhibition of rat ADCY10 overexpressed […] assessed as IBMX stimulated cAMP accumulation preincubated for 10 mins followed by IBMX stimulation and measured after 5 mins by ELISA; format: cell-based, 4-4 cell
[3] = AUC(0 to 24 hrs) in CD-1 mouse at 2 mg/kg,iv and measured upto 24 hrs by LC-MS analysis; format: ADME, organism-based; set-up: dose 2 mg/kg, time < 24 hrs, route iv; details: in vivo
[4] = Cmax in CD-1 mouse at 2 mg/kg,iv and measured upto 24 hrs by LC-MS analysis; format: ADME, organism-based; set-up: time < 24 hrs, dose 2 mg/kg, route iv; details: in vivo
[5] = Half life in CD-1 mouse at 2 mg/kg,iv and measured upto 24 hrs by LC-MS analysis; format: ADME, organism-based; details: in vivo
[6] = AUC(0 to 24 hrs) in CD-1 mouse at 10 mg/kg,po and measured upto 24 hrs by LC-MS analysis; format: ADME, organism-based; set-up: time < 24 hrs, dose 10 mg/kg, route po; details: in vivo
[7] = Cmax in CD-1 mouse at 10 mg/kg,po and measured upto 24 hrs by LC-MS analysis; format: ADME, organism-based; set-up: dose 10 mg/kg, time < 24 hrs, route po; details: in vivo
[8] = Tmax in CD-1 mouse at 10 mg/kg,po and measured upto 24 hrs by LC-MS analysis; format: ADME, organism-based; details: in vivo
[9] = Oral bioavailability in CD-1 mouse at 10 mg/kg and measured upto 24 hrs by LC-MS analysis; format: ADME, organism-based; details: in vivo
[10] = AUC(0 to 24 hrs) in CD-1 mouse at 50 mg/kg,po and measured upto 24 hrs by LC-MS analysis; format: ADME, organism-based; set-up: time < 24 hrs, dose 50 mg/kg, route po; details: in vivo
[11] = Cmax in CD-1 mouse at 50 mg/kg,po and measured upto 24 hrs by LC-MS analysis; format: ADME, organism-based; set-up: time < 24 hrs, dose 50 mg/kg, route po; details: in vivo
[12] = Tmax in CD-1 mouse at 50 mg/kg,po and measured upto 24 hrs by LC-MS analysis; format: ADME, organism-based; details: in vivo
[13] = Permeability of compound at pH 7.4 at 10 uM incubated for 3 hrs by PAMPA based LC/MS/MS analysis; format: ADME; details: pH 7.4, 3 h
[14] = 1-Octanol/water partition coefficient, logD of the compound at pH 7.4 by chromatographic analysis; format: physicochemical
[15] = Kinetic solubility of compound by UV spectroscopy analysis; format: physicochemical; details: read-out: Kinetic_solubility
[16] = Cytotoxicity against […] at <20 uM; format: toxicity, cell-based; details: 4-4 cell
[17] = target: T1, Adenylate cyclase type 10; remark: listed apart in the source
Description: Binding affinity to human recombinant His-tagged ADCY10 assessed as dissociation constant and measured for 600 sec by SPR analysis

Sequence of Adenylate cyclase type 10 (Rattus norvegicus, UniProt Q9Z286) (Q9Z286 whole entry): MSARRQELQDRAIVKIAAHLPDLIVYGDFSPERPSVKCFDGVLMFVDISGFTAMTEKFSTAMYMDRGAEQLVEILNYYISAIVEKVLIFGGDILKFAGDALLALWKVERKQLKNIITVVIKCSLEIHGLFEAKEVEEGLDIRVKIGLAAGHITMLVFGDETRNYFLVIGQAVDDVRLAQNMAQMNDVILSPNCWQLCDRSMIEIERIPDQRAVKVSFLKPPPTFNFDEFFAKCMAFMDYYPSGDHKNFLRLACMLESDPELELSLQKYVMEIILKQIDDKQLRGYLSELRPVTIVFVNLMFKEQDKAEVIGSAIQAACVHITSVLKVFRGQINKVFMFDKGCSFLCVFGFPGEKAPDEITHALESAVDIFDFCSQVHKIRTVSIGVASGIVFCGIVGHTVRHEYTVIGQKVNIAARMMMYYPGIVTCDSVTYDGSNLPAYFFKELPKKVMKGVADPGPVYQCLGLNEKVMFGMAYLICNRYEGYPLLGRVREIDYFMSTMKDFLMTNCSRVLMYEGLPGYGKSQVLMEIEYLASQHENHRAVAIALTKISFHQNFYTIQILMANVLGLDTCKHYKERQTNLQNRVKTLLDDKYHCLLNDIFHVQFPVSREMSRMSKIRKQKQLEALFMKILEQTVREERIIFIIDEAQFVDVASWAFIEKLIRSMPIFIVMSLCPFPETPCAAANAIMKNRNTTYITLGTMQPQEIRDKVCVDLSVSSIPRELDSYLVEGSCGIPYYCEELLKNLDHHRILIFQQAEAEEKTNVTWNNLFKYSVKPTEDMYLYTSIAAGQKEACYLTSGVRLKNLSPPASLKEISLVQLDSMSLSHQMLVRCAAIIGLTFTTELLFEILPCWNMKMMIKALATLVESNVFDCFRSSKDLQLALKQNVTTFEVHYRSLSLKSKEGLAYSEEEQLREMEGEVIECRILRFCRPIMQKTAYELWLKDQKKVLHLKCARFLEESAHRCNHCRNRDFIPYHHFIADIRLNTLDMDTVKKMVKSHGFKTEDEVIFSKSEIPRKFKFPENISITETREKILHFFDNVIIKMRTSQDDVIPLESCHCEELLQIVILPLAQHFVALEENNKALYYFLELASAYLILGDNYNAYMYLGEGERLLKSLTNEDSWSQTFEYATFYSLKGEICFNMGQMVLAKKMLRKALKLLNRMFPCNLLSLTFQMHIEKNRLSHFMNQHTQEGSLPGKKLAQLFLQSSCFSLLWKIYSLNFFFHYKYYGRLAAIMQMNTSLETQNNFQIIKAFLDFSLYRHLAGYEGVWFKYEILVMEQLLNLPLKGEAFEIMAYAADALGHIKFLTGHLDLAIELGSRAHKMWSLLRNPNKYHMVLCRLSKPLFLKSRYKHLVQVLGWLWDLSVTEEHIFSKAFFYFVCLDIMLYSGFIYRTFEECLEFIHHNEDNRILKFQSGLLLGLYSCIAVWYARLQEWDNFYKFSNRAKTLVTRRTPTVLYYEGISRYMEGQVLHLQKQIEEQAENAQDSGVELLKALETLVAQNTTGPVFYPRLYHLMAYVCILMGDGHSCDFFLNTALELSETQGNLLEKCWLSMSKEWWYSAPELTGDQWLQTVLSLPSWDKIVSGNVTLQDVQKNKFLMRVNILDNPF
T1 sequence (Q96PN6 whole entry): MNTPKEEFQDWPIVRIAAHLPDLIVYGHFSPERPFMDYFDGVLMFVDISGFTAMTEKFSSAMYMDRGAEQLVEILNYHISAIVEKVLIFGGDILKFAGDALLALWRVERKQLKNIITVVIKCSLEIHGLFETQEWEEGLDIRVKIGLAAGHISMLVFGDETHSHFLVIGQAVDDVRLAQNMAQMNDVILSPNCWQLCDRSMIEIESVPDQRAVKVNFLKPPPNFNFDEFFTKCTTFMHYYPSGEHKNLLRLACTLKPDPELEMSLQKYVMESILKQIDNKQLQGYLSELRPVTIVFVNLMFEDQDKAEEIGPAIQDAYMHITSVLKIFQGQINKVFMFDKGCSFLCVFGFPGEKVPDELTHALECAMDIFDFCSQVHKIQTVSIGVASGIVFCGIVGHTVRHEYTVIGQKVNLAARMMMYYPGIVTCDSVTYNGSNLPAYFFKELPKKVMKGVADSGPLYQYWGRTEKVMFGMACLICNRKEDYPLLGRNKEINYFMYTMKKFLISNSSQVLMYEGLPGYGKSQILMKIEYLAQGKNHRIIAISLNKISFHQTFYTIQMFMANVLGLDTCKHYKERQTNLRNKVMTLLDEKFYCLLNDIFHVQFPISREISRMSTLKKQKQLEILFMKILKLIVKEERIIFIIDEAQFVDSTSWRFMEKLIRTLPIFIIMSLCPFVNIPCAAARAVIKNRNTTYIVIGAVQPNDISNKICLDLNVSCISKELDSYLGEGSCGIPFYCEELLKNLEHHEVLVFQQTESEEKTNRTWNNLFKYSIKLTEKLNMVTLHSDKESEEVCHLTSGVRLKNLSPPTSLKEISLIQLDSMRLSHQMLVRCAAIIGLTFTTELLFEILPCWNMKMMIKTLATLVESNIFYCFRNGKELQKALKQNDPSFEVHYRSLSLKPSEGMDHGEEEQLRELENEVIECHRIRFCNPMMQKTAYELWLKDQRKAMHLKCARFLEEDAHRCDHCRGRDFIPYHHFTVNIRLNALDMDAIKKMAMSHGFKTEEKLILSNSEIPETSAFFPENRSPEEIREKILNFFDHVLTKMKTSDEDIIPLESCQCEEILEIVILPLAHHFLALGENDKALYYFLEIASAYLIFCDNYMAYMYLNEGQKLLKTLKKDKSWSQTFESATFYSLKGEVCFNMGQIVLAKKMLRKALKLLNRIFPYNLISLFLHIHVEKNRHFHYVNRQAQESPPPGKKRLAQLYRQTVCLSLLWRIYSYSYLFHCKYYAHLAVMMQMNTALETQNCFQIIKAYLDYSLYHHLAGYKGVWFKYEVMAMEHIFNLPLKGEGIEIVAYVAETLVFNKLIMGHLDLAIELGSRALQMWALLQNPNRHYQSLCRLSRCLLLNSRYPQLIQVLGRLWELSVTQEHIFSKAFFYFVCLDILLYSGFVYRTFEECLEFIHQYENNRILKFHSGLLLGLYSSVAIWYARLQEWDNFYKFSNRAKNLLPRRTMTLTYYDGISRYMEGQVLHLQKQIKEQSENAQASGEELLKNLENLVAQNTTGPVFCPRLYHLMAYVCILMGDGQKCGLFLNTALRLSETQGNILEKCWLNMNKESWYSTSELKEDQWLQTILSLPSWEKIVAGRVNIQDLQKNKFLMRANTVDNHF

| SMILES | IC50 [2] | IC50 [1] | also measured |
| --- | --- | --- | --- |
| Nc1nc(Cl)cc(-c2nn(C(F)F)cc2Cc2ccccc2)n1 |  | 829 nM |  |
| Nc1nc(Cl)cc(-c2nn3ccccc3c2Cc2ccccc2)n1 |  | 112 nM |  |
| CNC(=O)c1ccccc1Cc1cn(C)nc1-c1cc(Cl)nc(N)n1 |  | 1240 nM |  |
| CNC(=O)c1cccc(Cc2cn(C)nc2-c2cc(Cl)nc(N)n2)c1 |  | 1880 nM |  |
| COc1ccccc1Cc1cn(C)nc1-c1cc(Cl)nc(N)n1 |  | 67 nM |  |
| Nc1nc(Cl)cc(-c2nn(C(F)F)cc2Cc2ccccc2OCCN2CCOC[C@H]2CO)n1 |  |  | AUC [3]: 0.78 µM·h; Cmax [4]: 2500 nM; t1/2 [5]: 55.8 min; AUC [6]: 0.41 µM·h; Cmax [7]: 450 nM; Tmax [8]: 15 min; F [9]: 11%; AUC [10]: 5.46 µM·h; Cmax [11]: 6100 nM; Tmax [12]: 15 min; permeability [13]: 46.3 ×10⁻⁶ cm/s; logD [14]: 2.89; solubility kinetic [15]: 79 µg/mL (≈ 160 µM); Activity [16]: Non-Toxic |
| Cn1cc(Cc2ccccc2Cl)c(-c2cc(Cl)nc(N)n2)n1 |  | 64 nM |  |
| Cn1cc(Cc2ccc(Cl)cc2)c(-c2cc(Cl)nc(N)n2)n1 |  | 2580 nM |  |
| Nc1nc(Cl)cc(-c2nc3ccccn3c2Cc2ccccc2)n1 |  | 716 nM |  |
| Nc1nc(Cl)cc(-c2nn(C(F)F)cc2Cc2ccccc2OCC(=O)N2CCOCC2)n1 | 37.7 nM | 24.2 nM | Kd [17]: 4.7 nM |
| Cn1cc(Cc2cccc(Cl)c2)c(-c2cc(Cl)nc(N)n2)n1 |  | 389 nM |  |

Now from value to molecule, other results behind:

| IC50 [2] | SMILES | IC50 [1] | also measured |
| --- | --- | --- | --- |
| 2.5 nM | COC(=O)[C@H]1COCCN1CCOc1ccccc1Cc1cn(C(F)F)nc1-c1cc(Cl)nc(N)n1 |  |  |
| 22.9 nM | Nc1nc(Cl)cc(-c2nn(C(F)F)cc2Cc2ccccc2OCCN2CCO[C@H](CO)C2)n1 |  |  |
| 34.8 nM | Nc1nc(Cl)cc(-c2nn(C(F)F)cc2Cc2ccccc2OCCN2CCO[C@@H](CO)C2)n1 |  |  |
| 1.9 nM | Nc1nc(Cl)cc(-c2nn(C(F)F)cc2Cc2ccccc2OCCN2CCOCC2)n1 |  |  |
| 5.5 nM | Nc1nc(Cl)cc(-c2nn(C(F)F)cc2Cc2ccccc2OCCN2CCNC(=O)C2)n1 |  |  |
| 16.7 nM | CC1(O)CCN(CCOc2ccccc2Cc2cn(C(F)F)nc2-c2cc(Cl)nc(N)n2)CC1 |  |  |
| 14.6 nM | Nc1nc(Cl)cc(-c2nn(C(F)F)cc2Cc2ccccc2OCCN2CCS(=O)(=O)CC2)n1 |  |  |

Reference: ChEMBL document CHEMBL5214996, “Design, Synthesis, and Pharmacological Evaluation of Second-Generation Soluble Adenylyl Cyclase (sAC, ADCY10) Inhibitors with Slow Dissociation Rates” (J Med Chem, 2022)
